Structures can show the parent of a compound that is named as a salt.
target: T1, SMO (Mus musculus, UniProt P56726); test: Smoothened (SMO)/Sonic Hedgehog (SHh) Transient Transcriptional Activation Assay (Gli-luciferase reporter in C3H10T1/2 cells); assay type: cell-based, murine; conditions: 2 uM test compound, SHh 250 ng/ml, 20 hrs
T1 construct: endogenous in cells; host or cells: C3H10T1/2 (ATCC #CCL-226)
Summary of the method: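 C3H10T1/2 cells transiently transfected with a 10× murine Gli-responsive firefly luciferase reporter plus pEGFP, serum-starved 20 h in 0.5% calf serum, then treated with compounds (2 uM–2 nM final) and 250 ng/ml recombinant human SHh for 20 h at 37 °C. Read-out: Dual-Glo luminescence.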

T1 sequence (P56726 33-793): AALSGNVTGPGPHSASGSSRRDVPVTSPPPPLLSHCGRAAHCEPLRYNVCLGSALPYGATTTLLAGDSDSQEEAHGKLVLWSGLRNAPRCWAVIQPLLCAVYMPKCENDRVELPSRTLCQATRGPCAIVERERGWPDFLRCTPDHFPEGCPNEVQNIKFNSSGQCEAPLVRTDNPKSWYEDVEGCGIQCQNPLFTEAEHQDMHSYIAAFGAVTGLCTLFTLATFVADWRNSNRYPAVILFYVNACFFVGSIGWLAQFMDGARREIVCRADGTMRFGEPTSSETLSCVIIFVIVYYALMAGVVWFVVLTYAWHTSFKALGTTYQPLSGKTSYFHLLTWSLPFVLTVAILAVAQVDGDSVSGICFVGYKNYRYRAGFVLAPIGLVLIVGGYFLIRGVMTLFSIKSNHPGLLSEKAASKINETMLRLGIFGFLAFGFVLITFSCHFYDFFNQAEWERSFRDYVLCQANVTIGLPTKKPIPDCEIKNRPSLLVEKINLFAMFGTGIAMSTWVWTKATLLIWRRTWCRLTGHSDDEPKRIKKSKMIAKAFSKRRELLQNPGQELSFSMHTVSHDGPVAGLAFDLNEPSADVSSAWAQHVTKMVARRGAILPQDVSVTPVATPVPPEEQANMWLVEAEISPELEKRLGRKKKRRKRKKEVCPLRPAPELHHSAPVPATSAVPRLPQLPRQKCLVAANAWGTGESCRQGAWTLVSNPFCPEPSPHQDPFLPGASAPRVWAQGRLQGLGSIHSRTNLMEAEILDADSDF

SMO % inhibition at 2 uM	Compound
103%	N-(3-(5-Cyano-1-methyl-1H-benzo[d]imidazol-2-yl)cyclohexyl]-2,3-dihydrobenzo[b][1,4]dioxine-6-carboxamide and N-(3-(6-Cyano-1-methyl-1H-benzo[d]imidazol-2-yl)cyclohexyl]-2,3-dihydrobenzo[b][1,4]dioxine-6-carboxamide [Example 20]
98%	N-(3-(1,5-Dimethyl-1H-benzo[d]imidazol-2-yl)cyclohexyl]-3,5-dimethoxybenzamide and N-(3-(1,6-dimethyl-1H-benzo[d]imidazol-2-yl)cyclohexyl]-3,5-dimethoxybenzamide [Example 22]
93%	N-(3-(6-(2-Cyanopropan-2-yl)-1-methyl-1H-benzo[d]imidazol-2-yl)cyclohexyl)-2,3-dihydrobenzo[b)[1,4]dioxine-6-carboxamide and N-(3-(5-(2-cyanopropan-2-yl)-1-methyl-1H-benzo[d]imidazol-2-yl)cyclohexyl)-2,3-dihydrobenzo[b][1,4]dioxine-6-carboxamide [Example 36]
97%	N-(3-(6-(2-Hydroxypropan-2-yl)-1-methyl-1H-benzo[d]imidazol-2-yl)cyclohexyl)-2,3-dihydrobenzo[b][1,4]dioxine-6-carboxamide and N-(3-(5-(2-Hydroxypropan-2-yl)-1-methyl-1H-benzo[d]imidazol-2-yl)cyclohexyl)-2,3-dihydrobenzo[b][1,4]dioxine-6-carboxamide [Example 31]

same assay, conditions: 2 μM test compound, SHh 250 ng/ml, 20 hrs

SMO CELL % INHIBITION @ 2 μM	Compound
100%	O=C(Cn1ccc2sccc2c1=O)NC1CCCC(c2nc3ccccc3[nH]2)C1 (stereo not drawn) [Example 128, N-[3-(1H-benzimidazol-2-yl)cyclohexyl]-2-(4-oxothieno[3,2-c]pyridin-5(4H)-yl)acetamide triflouroacetate]

same assay, conditions: C3H 10T1/2, 2 uM test compound, SHh 250 ng/ml, 20 hrs, read-out: SMO % inhibition at 2 uM

inhibition at 2 µM	Compound
62%	COc1cc(OC)cc(C(=O)NC2CCCC(c3nc4ccc(NS(=O)(=O)C(C)C)cc4[nH]3)C2)c1 (stereo not drawn) [Example 12, 3,5-Dimethoxy-N-(3-(5-(propan-2-ylsulfonamido)-1H-benzo[d]imidazol-2-yl)cyclohexyl)]
102%	COc1cc(OC)cc(C(=O)NC2CCCC(c3nc4ccc(C)cc4[nH]3)C2)c1 (stereo not drawn) [Example 5, 3,5-dimethoxy-N-[3-(5-methyl-1H-benzo[d]imidazol-2-yl)cyclohexyl)benzamide]
94%	N#CCCn1c(C2CCCC(NC(=O)c3ccc4c(c3)OCCO4)C2)nc2ccccc21 (stereo not drawn) [Example 15, N-(3-(1-(2-Cyanoethyl)-1H-benzo[d]imidazol-2-yl)cyclohexyl)-2,3-dihydrobenzo[b][1,4]dioxine-6-carboxamide]
103%	O=C(N[C@@H]1CCC[C@H](c2nc3ccccc3[nH]2)C1)c1ccc(Cl)nc1 [N-((1R,3S)-3-(1H-Benzo[d]imidazol-2-yl)cyclohexyl)-6-chloronicotinamide]
86%	COc1cc(OC)cc(C(=O)NC2CCCC(c3nc4ccc(NS(C)(=O)=O)cc4[nH]3)C2)c1 (stereo not drawn) [Example 11, 3,5-Dimethoxy-N-(3-(5-(methylsulfonamido)-1H-benzo[d]imidazol-2-yl)cyclohexyl)benzamide]
99%	COCCNCc1ccc2nc([C@H]3CCC[C@@H](NC(=O)c4ccc5c(c4)OCCO5)C3)[nH]c2c1 [Example 43]

same assay, conditions: C3H 10T1/2, 2 μM test compound, SHh 250 ng/ml, 20 hrs, read-out: SMO CELL % INHIBITION @ 2 μM

inhibition at 2 µM	Compound
96%	O=C(CCC(=O)c1ccccc1)NC1CCCC(c2nc3ccccc3[nH]2)C1 (stereo not drawn) [Example 89, N-[3-(1H-benzimidazol-2-yl)cyclohexyl]-4-oxo-4-phenylbutanamide triflouroacetate]
96%	O=C(N[C@@H]1CCC[C@H](c2nc3ccccc3[nH]2)C1)c1cnc2c(c1)OCCO2 [Example 243, N-((1R,3S)-3-(1H-benzo[d]imidaz-ol-2-yl)cyclohexyl)-2,3-dihydro-[1,4]dioxino[2,3-b]pyridine-7-carboxamide]
109%	O=C(NC1CCCC(c2nc3ccccc3[nH]2)C1)c1cc(C2CC2)n[nH]1 (stereo not drawn) [Example 114]
48%	O=C(NC1CCCC(c2nc3ccccc3[nH]2)C1)C1CCCCC1 (stereo not drawn) [Example 57, N-(3-(1H-benzo[d]imidazol-2-yl)cyclohexyl) cyclohexanecar-boxamide HCl]
24%	Cc1ccoc1C(=O)NC1CCCC(c2nc3ccccc3[nH]2)C1 (stereo not drawn) [Example 93, N-[3-(1H-benzimidazol-2-yl)cyclohexyl]-3-methyl-2-furamide triflouroacetate]
83%	CC(=O)N[C@H](Cc1ccccc1)C(=O)NC1CCCC(c2nc3ccccc3[nH]2)C1 (stereo partly drawn) [Example 123, Nalpha-acetyl-N-[3-(1H-benzimidazol-2-yl)cyclohexyl]-D-phenylalanin-amide triflouroacetate]
50%	O=C(CCc1nc2ccccc2[nH]1)NC1CCCC(c2nc3ccccc3[nH]2)C1 (stereo not drawn) [Example 148, 3-(1H-benzimidazol-2-yl)-N-[3-(1H-benzimidazol-2-yl)cyclohexyl]-propanamide triflouroacetate]
91%	Cc1cn2cc(CCC(=O)NC3CCCC(c4nc5ccccc5[nH]4)C3)nc2s1 (stereo not drawn) [Example 116, N-[3-(1H-benzimidazol-2-yl)cyclohexyl]-3-(2-methylimidazo[2,1-b][1,3]thiazol-6-yl)propanamide triflouroacetate]
105%	O=C(N[C@@H]1CCC[C@H](c2nc3cc(C(F)(F)F)ccc3[nH]2)C1)c1ccc2c(c1)CCN(CC1CC1)C2 [Example 295]
95%	O=C(NC1CCCC(c2nc3ccccc3[nH]2)C1)c1ccc(-n2cnnn2)cc1 (stereo not drawn) [Example 163, N-[3-(1H-benzimidazol-2-yl)cyclohexyl]-4-(1H-tetrazol-1-yl)benzamide triflouroacetate]
79%	O=C(Cc1cn2cc(Cl)ccc2n1)NC1CCCC(c2nc3ccccc3[nH]2)C1 (stereo not drawn) [Example 107, N-[3-(1H-benzimidazol-2-yl)cyclohexyl]-2-(6-chloroimidazo[1,2-a]pyridin-2-yl)acetamide triflouroacetate]
44%	O=C(N[C@H]1CCC[C@H](c2nc3ccccc3[nH]2)C1)c1cc(C2CC2)n[nH]1 [Example 246, N-(3-(1H-benzo[d]imidaz-ol-2-yl)cyclohexyl)-3-cyclopropyl-1H-pyrazole-5-carboxamide HCl]
96%	O=C(NC1CCCC(c2nc3ccccc3[nH]2)C1)c1cccnc1 (stereo not drawn) [Example 53, N-[3-(1H-benzimidazol-2-yl)cyclohexyl]-nicotinamide HCl]
81%	O=C1CCc2cc(C(=O)N[C@@H]3CCC[C@H](c4nc5ccccc5[nH]4)C3)ccc2N1 [Example 220, N-[(1R,3S)-3-(1H-benzimidazol-2-yl)cyclohexyl]-2-oxo-1,2,3,4-tetrahydroquin-oline-6-carboxamide triflouroacetate]
101%	O=C(Cc1ccc(Cl)s1)NC1CCCC(c2nc3ccccc3[nH]2)C1 (stereo not drawn) [Example 131, N-[3-(1H-benzimidazol-2-yl)cyclohexyl]-2-(5-chloro-2-thienyl)acetamide triflouroacetate]
80%	COc1cccc2[nH]c(C(=O)N[C@@H]3CCC[C@H](c4nc5ccccc5[nH]4)C3)cc12 [Example 208, N-[(1R,3S)-3-(1H-benzimidazol-2-yl)cyclohexyl]-4-methoxy-1H-indole-2-carboxamide triflouroacetate]
111%	O=C(Nc1ccc(Cl)c(Cl)c1)N[C@@H]1CCC[C@H](c2nc3ccccc3[nH]2)C1 [Example 237]
67%	O=C(N[C@@H]1CCC[C@H](c2nc3ccccc3[nH]2)C1)c1n[nH]c2ccccc12 [Example 199, N-[(1R,3S)-3-(1H-benzimidazol-2-yl)cyclohexyl]-1H-indazole-3-carboxamide triflouroacetate]
81%	O=C(N[C@@H]1CCC[C@H](c2nc3ccccc3[nH]2)C1)[C@@H]1COc2ccccc2O1 [Example 185, (2S)-N-[(1R,3S)-3-(1H-benzimidazol-2-yl)cyclohexyl]-2,3-dihydro-1,4-benzodioxine-2-carboxamide triflouroacetate]
101%	Cc1c(Br)cc2[nH]c(C3CCCC(NC(=O)c4ccc5c(c4)OCCO5)C3)nc2c1C (stereo not drawn) [Example 82, N-[3-(6-bromo-4,5-dimethyl-1H-benzimidazol-2-yl)cyclohexyl]-2,3-dihydro-1,4-benzodioxine-6-carboxamide HCl]
88%	O=C(N[C@@H]1CCC[C@H](c2nc3ccccc3[nH]2)C1)c1cc2ccc(Cl)cc2[nH]1 [Example 210, N-[(1R,3S)-3-(1H-benzimidazol-2-yl)cyclohexyl]-6-chloro-1H-indole-2-carboxamide triflouroacetate]
59%	O=C(N[C@@H]1CCC[C@H](c2nc3ccccc3[nH]2)C1)c1ccc2c(c1)OCO2 [Example 186, N-[(1R,3S)-3-(1H-benzimidazol-2-yl)cyclohexyl]-1,3-benzodioxole-5-carboxamide triflouroacetate]
110%	CN1CCCc2cc(C(=O)N[C@@H]3CCC[C@H](c4nc5ccccc5[nH]4)C3)ccc21 [Example 200, N-[(1R,3S)-3-(1H-benzimidazol-2-yl)cyclohexyl]-1-methyl-1,2,3,4-tetrahydroquino-line-6-carboxamide HCl]
106%	CN(C)CCNc1ccc(C(=O)N[C@@H]2CCC[C@H](c3nc4cc(C(F)(F)F)ccc4[nH]3)C2)cn1 [Example 293, 6-{[2-(dimethylamino)ethyl]amino}-N-{(1R,3S)-3-[5-(trifluoromethyl)-1H-benzimidazol-2-yl]cyclohexyl}-nicotinamide HCl]
69%	CC(C(=O)NC1CCCC(c2nc3ccccc3[nH]2)C1)n1cccn1 (stereo not drawn) [Example 142, N-[3-(1H-benzimidazol-2-yl)cyclohexyl]-2-(1H-pyrazol-1-yl)propanamide triflouroacetate]

— patent US20100029615A1, “BENZIMIDAZOLE DERIVATIVES” (priority 2006, published 2010)
